Laboratory results published in patent publication US8598227B2, “Epoprostenol formulation and method of making thereof” (Actelion Pharmaceuticals Ltd., priority 2006, dated 2013).

Columns and labels:
[1] = Solution stability of Epoprostenol in presence of 50 mg/ml of arginine; format: physicochemical; conditions: 50 mg/ml arginine
Protocol: A solution of epoprostenol and 50 mg/ml of arginine was prepared and the stability of this solution at 5° C. was determined. The resulting data are presented in the Table 4: Stability of the same formulation was also conducted at pH 11.2; and the data are summarized in the Table 5 below: […]

[2] = Solution stability of reconstituted lyophile (epoprostenol 0.5 mg/ml, arginine 50 mg/ml, pH 13.0); format: physicochemical; conditions: 50 mg/ml arginine
Protocol: In the next set of experiments, the pH of the solution containing epoprostenol and arginine was adjusted to 13.0 with sodium hydroxide, and lyophilized. Upon reconstitution of the lyophile with 1 ml of Water for Injection, the reconstituted solution contains 50 mg/ml arginine and 0.5 mg/ml epoprostenol. The pH of the solution is 13.0. The stability data are presented in Table 6 for 5° C. and Table 7 for 29° C. below: […]

[3] = Dilution stability of reconstituted lyophile diluted to 10 μg/ml in IV fluids; format: physicochemical
Protocol: Dilution studies were also conducted to determine whether the formulations of the present invention are suitable for IV infusion at room temperature. The stability studies were conducted at 25° C. and 30° C. to mimic the temperatures during the infusion over a 24 hour period in various large volume parenteral solutions.
To this end, the stability of the epoprostenol lyophile reconstituted and diluted to 10 μg/ml in normal saline was stability monitored for 48 hours at 25° C. and 30° C. Dilution stability of all three primary formulation batches was conducted in normal saline at 25° C. and 30° C. In addition to these studies, dilution stability studies on one lot of primary formulation batch were conducted at 25° C. and 30° C. in 5% Dextrose (D5W), WFI (in-house) and lactated Ringer's solution.
For the dilution studies, each vial was reconstituted with 5 ml of the diluent. The clear solution was transferred into a 50 ml volumetric flask. The vial was rinsed with 5 ml of diluent three times and the rinses were transferred to the flask. The contents of the flask were further diluted with the diluent and made up to the mark with the diluent. The pH of the diluted solution was measured and recorded. The contents of the flask were held at the temperatures noted and analyzed at predetermined time intervals.

[4] = cited from earlier work

CCCCC[C@H](O)/C=C/C1[C@H]2C/C(=C/CCCC(=O)[O-])OC2C[C@H]1O.[Na+] (stereo partly drawn) [Epoprostenol, (5Z,9(alpha),11(alpha),13E,15S)-6,9-epoxy-11,15-dihydroxyprosta-5,13-dien-1-oic acid]
% Assay of Epoprostenol by Area ([1]; pH 11.2, 5 ± 1° C., 4.0 HRS): 99.5% | Area % of 6-keto et al. impurities ([1]; pH 11.2, 5 ± 1° C., 4.0 HRS): 0.28% | % Assay of Epoprostenol by Area ([1]; pH 11.2, 5 ± 1° C., 7.0 HRS): 99.0% | Area % of 6-keto et al. impurities ([1]; pH 11.2, 5 ± 1° C., 7.0 HRS): 0.39% | % Assay of Epoprostenol by Area ([1]; pH 11.2, 5 ± 1° C., 10.0 HRS): 98.6% | Area % of 6-keto et al. impurities ([1]; pH 11.2, 5 ± 1° C., 10.0 HRS): 0.53% | % Assay of Epoprostenol by Area ([1]; pH 11.2, 5 ± 1° C., 11.5 HRS): 98.3% | Area % of 6-keto et al. impurities ([1]; pH 11.2, 5 ± 1° C., 11.5 HRS): 0.57% | % Assay of Epoprostenol by Area ([1]; pH 11.2, 5 ± 1° C., 17.5 HRS): 97.3% | Area % of 6-keto et al. impurities ([1]; pH 11.2, 5 ± 1° C., 17.5 HRS): 0.80% | % Assay of Epoprostenol by Area ([1]; pH 11.2, 5 ± 1° C., Initial): 100.0% | loss in potency ([1]; pH 11.9, 5° C., at 53 hours): 1.4% | % Assay of Epoprostenol by Area ([1]; pH 11.9, 5 ± 1° C., 2 HRS): 99.9% | Area % of 6-keto et al. impurities ([1]; pH 11.9, 5 ± 1° C., 2 HRS): 0.19% | % Assay of Epoprostenol by Area ([1]; pH 11.9, 5 ± 1° C., 4 HRS): 99.8% | Area % of 6-keto et al. impurities ([1]; pH 11.9, 5 ± 1° C., 4 HRS): 0.19% | % Assay of Epoprostenol by Area ([1]; pH 11.9, 5 ± 1° C., 6 HRS): 99.8% | Area % of 6-keto et al. impurities ([1]; pH 11.9, 5 ± 1° C., 6 HRS): 0.21% | % Assay of Epoprostenol by Area ([1]; pH 11.9, 5 ± 1° C., 8 HRS): 99.7% | Area % of 6-keto et al. impurities ([1]; pH 11.9, 5 ± 1° C., 8 HRS): 0.22% | % Assay of Epoprostenol by Area ([1]; pH 11.9, 5 ± 1° C., 10 HRS): 99.6% | Area % of 6-keto et al. impurities ([1]; pH 11.9, 5 ± 1° C., 10 HRS): 0.23% | % Assay of Epoprostenol by Area ([1]; pH 11.9, 5 ± 1° C., 12.5 HRS): 99.6% | Area % of 6-keto et al. impurities ([1]; pH 11.9, 5 ± 1° C., 12.5 HRS): 0.25% | % Assay of Epoprostenol by Area ([1]; pH 11.9, 5 ± 1° C., 14.5 HRS): 99.6% | Area % of 6-keto et al. impurities ([1]; pH 11.9, 5 ± 1° C., 14.5 HRS): 0.26% | % Assay of Epoprostenol by Area ([1]; pH 11.9, 5 ± 1° C., 39 HRS): 99.5% | Area % of 6-keto et al. impurities ([1]; pH 11.9, 5 ± 1° C., 39 HRS): 0.63% | % Assay of Epoprostenol by Area ([1]; pH 11.9, 5 ± 1° C., 53 HRS): 98.6% | Area % of 6-keto et al. impurities ([1]; pH 11.9, 5 ± 1° C., 53 HRS): 1.15% | % Assay of Epoprostenol by Area ([1]; pH 11.9, 5 ± 1° C., 77 HRS): 92.7% | Area % of 6-keto et al. impurities ([1]; pH 11.9, 5 ± 1° C., 77 HRS): 2.05% | % Assay of Epoprostenol by Area ([1]; pH 11.9, 5 ± 1° C., 100 HRS): 92.5% | Area % of 6-keto et al. impurities ([1]; pH 11.9, 5 ± 1° C., 100 HRS): 2.10% | % Assay of Epoprostenol by Area ([1]; pH 11.9, 5 ± 1° C., 124 HRS): 92.5% | Area % of 6-keto et al. impurities ([1]; pH 11.9, 5 ± 1° C., 124 HRS): 2.25% | % Assay of Epoprostenol by Area ([1]; pH 11.9, 5 ± 1° C., Initial): 100.0% | Area % of 6-keto et al. impurities ([1]; pH 11.9, 5 ± 1° C., Initial): 0.15% | loss of potency ([2]; pH 13.0, 5° C., over 480 hours): 3.4% | loss of potency on average ([2]; pH 13.0, 5° C., over 480 hours): 0.007 %/hour | % Assay of Epoprostenol by Area ([2]; pH 13.0, 5 ± 1° C., 14.5 Hours): 99.8% | Area % of 6-keto PGF et al. impurities ([2]; pH 13.0, 5 ± 1° C., 14.5 Hours): 0.20% | % Assay of Epoprostenol by Area ([2]; pH 13.0, 5 ± 1° C., 53 Hours): 98.8% | % Assay of Epoprostenol by Area ([2]; pH 13.0, 5 ± 1° C., 124 Hours): 98.0% | Area % of 6-keto PGF et al. impurities ([2]; pH 13.0, 5 ± 1° C., 124 Hours): 0.40% | % Assay of Epoprostenol by Area ([2]; pH 13.0, 5 ± 1° C., 148 Hours): 97.6% | Area % of 6-keto PGF et al. impurities ([2]; pH 13.0, 5 ± 1° C., 148 Hours): 0.45% | % Assay of Epoprostenol by Area ([2]; pH 13.0, 5 ± 1° C., 192 Hours): 97.3% | Area % of 6-keto PGF et al. impurities ([2]; pH 13.0, 5 ± 1° C., 192 Hours): 0.47% | % Assay of Epoprostenol by Area ([2]; pH 13.0, 5 ± 1° C., 240 Hours): 96.9% | Area % of 6-keto PGF et al. impurities ([2]; pH 13.0, 5 ± 1° C., 240 Hours): 0.61% | % Assay of Epoprostenol by Area ([2]; pH 13.0, 5 ± 1° C., 480 Hours): 96.6% | Area % of 6-keto PGF et al. impurities ([2]; pH 13.0, 5 ± 1° C., 480 Hours): 0.70% | % Assay of Epoprostenol by Area ([2]; pH 13.0, 5 ± 1° C., Initial): 100.0% | Area % of 6-keto PGF et al. impurities ([2]; pH 13.0, 5 ± 1° C., Initial): 0.16% | degradation ([2]; pH 13.0, 29° C., in 12 hours): 1.5% | % Assay of Epoprostenol by Area ([2]; pH 13.0, 29 ± 1° C., 1 HRS): 100.0% | Area % of 6-keto et al. impurities ([2]; pH 13.0, 29 ± 1° C., 1 HRS): 0.087% | % Assay of Epoprostenol by Area ([2]; pH 13.0, 29 ± 1° C., 5 HRS): 99.8% | Area % of 6-keto et al. impurities ([2]; pH 13.0, 29 ± 1° C., 5 HRS): 0.18% | % Assay of Epoprostenol by Area ([2]; pH 13.0, 29 ± 1° C., 7 HRS): 99.3% | Area % of 6-keto et al. impurities ([2]; pH 13.0, 29 ± 1° C., 7 HRS): 0.21% | % Assay of Epoprostenol by Area ([2]; pH 13.0, 29 ± 1° C., 8 HRS): 99.2% | Area % of 6-keto et al. impurities ([2]; pH 13.0, 29 ± 1° C., 8 HRS): 0.25% | % Assay of Epoprostenol by Area ([2]; pH 13.0, 29 ± 1° C., 9 HRS): 99.1% | Area % of 6-keto et al. impurities ([2]; pH 13.0, 29 ± 1° C., 9 HRS): 0.29% | % Assay of Epoprostenol by Area ([2]; pH 13.0, 29 ± 1° C., 10 HRS): 98.8% | Area % of 6-keto et al. impurities ([2]; pH 13.0, 29 ± 1° C., 10 HRS): 0.28% | % Assay of Epoprostenol by Area ([2]; pH 13.0, 29 ± 1° C., 11 HRS): 98.6% | Area % of 6-keto et al. impurities ([2]; pH 13.0, 29 ± 1° C., 11 HRS): 0.29% | % Assay of Epoprostenol by Area ([2]; pH 13.0, 29 ± 1° C., 12 HRS): 98.5% | Area % of 6-keto et al. impurities ([2]; pH 13.0, 29 ± 1° C., 12 HRS): 0.30% | % Assay of Epoprostenol by Area ([2]; pH 13.0, 29 ± 1° C., 13 HRS): 98.1% | Area % of 6-keto et al. impurities ([2]; pH 13.0, 29 ± 1° C., 13 HRS): 0.38% | % Assay of Epoprostenol by Area ([2]; pH 13.0, 29 ± 1° C., 14 HRS): 98.0% | Area % of 6-keto et al. impurities ([2]; pH 13.0, 29 ± 1° C., 14 HRS): 0.37% | % Assay of Epoprostenol by Area ([2]; pH 13.0, 29 ± 1° C., 15 HRS): 97.8% | Area % of 6-keto et al. impurities ([2]; pH 13.0, 29 ± 1° C., 15 HRS): 0.39% | % Assay of Epoprostenol by Area ([2]; pH 13.0, 29 ± 1° C., 24 HRS): 97.5% | Area % of 6-keto et al. impurities ([2]; pH 13.0, 29 ± 1° C., 24 HRS): 0.39% | % Assay of Epoprostenol by Area ([2]; pH 13.0, 29 ± 1° C., 36 HRS): 97.5% | Area % of 6-keto et al. impurities ([2]; pH 13.0, 29 ± 1° C., 36 HRS): 0.45% | % Assay of Epoprostenol by Area ([2]; pH 13.0, 29 ± 1° C., Initial): 100.0% | Area % of 6-keto et al. impurities ([2]; pH 13.0, 29 ± 1° C., Initial): 0.072% | drug degraded ([3]; D5W, after 8 hours): approximately 84% | stability compared with normal saline ([3]; lactated Ringer's solution, 25° C. and 30° C.): comparable to that of normal saline | potency maintained ([3]; water, 30° C., for more than 18 hours): greater than 90%

N=C(N)NCCC[C@H](N)C(=O)O [arginine]
basic pKa [4]: 10.8
